From the supplement of paper PMC11208160

experiment: recombinant UMI read abundance after kanamycin selection (control-corrected) (log10(CPM+1)); higher = more efficient recombination; extreme values may be limits of the assay; sequences stand for … in AGTGCAGAGAAAATCGGCCAGTTTTCTCTGCCTGCAGTCCGCATGCCGTGGGACCCCTTGGGTTCTAACCTGTTGCCTAGATTTATGCAGCGGACTGCCTTTCTCCCAAAGTGATAAACCGG…AGGTTGGTTTCACT; site = the 11-nt donor
Procedure, shortened: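 Under IPTG (0.07 mM) plus kanamycin, or without selection, Escherichia coli carrying a UMI-tagged donor and donor-binding-loop pair library and a target plasmid for the IS621 bridge recombinase were plated in two replicates. Recombinant UMIs were PCR-amplified across the donor–target junction and sequenced. Counts were converted to CPM, averaged over replicates, scaled by control-derived factors and reported as log10(CPM+1).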
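Also: IS621 bridge recombinase in Escherichia coli cells against a fixed T5 target plasmid.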

First: GGAGCCCCATGGACCGGTTTTCCCGGTAATCCGTATTTGCG (site GGAGCCCCTCG)
Second: GGAGCGACATGGACCGGTTTTCCCGGTAATCCGTATTTGGA (site GGAGCGACTTC)
The “recombinant UMI read abundance (log10)” value of the first is lower: 0.00647 for the first, 0.237 for the second.

Going from “GGAGCGGCATGGACCGGTTTTCCCGGTAATCCGTATTTGGT (site GGAGAGGCTAC)” to “GGAGCGGCATGGACCGGTTTTCCCGGTAATCCGTATTTGGT (site GGAGCGGCTAC)”, the “recombinant UMI read abundance (log10)” value rises from 0 to 0.387.

“GGAGCGGCATGGACCGGTTTTCCCGGTAATCCGTATTTGGT (site GGAGGGGCTAC)” and “GGAGCGGCATGGACCGGTTTTCCCGGTAATCCGTATTTGGT (site GGAGTGGCTAC)” are within 0.2 log units of each other in “recombinant UMI read abundance (log10)” value: 0.00705 for the first, 0.101 for the second.

First: GGAGGTTCATGGACCGGTTTTCCCGGTAATCCGTATTTGAA (site GGAGGTTCTTT)
Second: GGAGTGCCATGGACCGGTTTTCCCGGTAATCCGTATTTGGT (site GGAGTGACTAC)
The “recombinant UMI read abundance (log10)” value of the first is higher: 1.66 for the first, 0.00343 for the second.

“GGAGTGCCATGGACCGGTTTTCCCGGTAATCCGTATTTGGT (site GGAGTGCCTAC)” and “GGAGTGCCATGGACCGGTTTTCCCGGTAATCCGTATTTGGT (site GGAGTGGCTAC)” are within 0.2 log units of each other in “recombinant UMI read abundance (log10)” value: 0.0291 for the first, 0.00926 for the second.

Compared with “GGAGTGCCATGGACCGGTTTTCCCGGTAATCCGTATTTGGT (site GGAGTGTCTAC)”, “GGAGTGGCATGGACCGGTTTTCCCGGTAATCCGTATTTGGA (site GGAGTGGCTAC)” is lower in “recombinant UMI read abundance (log10)” value: 1.21 for the first, 0.0116 for the second.

“GGAGTGGCATGGACCGGTTTTCCCGGTAATCCGTATTTGGA (site GGAGTGGCTCC)” and “GGAGTGGCATGGACCGGTTTTCCCGGTAATCCGTATTTGGA (site GGAGTGGCTGC)” are within 0.2 log units of each other in “recombinant UMI read abundance (log10)” value: 0.019 for the first, 0 for the second.

Compared with “GGAGTGGCATGGACCGGTTTTCCCGGTAATCCGTATTTGGA (site GGAGTGGCTTC)”, “GGATATACATGGACCGGTTTTCCCGGTAATCCGTATTTGCC (site GGATAAACTGG)” is lower in “recombinant UMI read abundance (log10)” value: 0.645 for the first, 0 for the second.

Going from “GGATATACATGGACCGGTTTTCCCGGTAATCCGTATTTGCC (site GGATACACTGG)” to “GGATATACATGGACCGGTTTTCCCGGTAATCCGTATTTGCC (site GGATAGACTGG)”, the “recombinant UMI read abundance (log10)” value falls from 0.982 to 0.756.

First: GGATATACATGGACCGGTTTTCCCGGTAATCCGTATTTGCC (site GGATATACTGG)
Second: GGATCACCATGGACCGGTTTTCCCGGTAATCCGTATTTGCT (site CGATCATCTAG)
The “recombinant UMI read abundance (log10)” value of the first is higher: 1.81 for the first, 0 for the second.

First: GGATCACCATGGACCGGTTTTCCCGGTAATCCGTATTTGCT (site GGATCACCTAG)
Second: GGATCAGCATGGACCGGTTTTCCCGGTAATCCGTATTTGAA (site GGATCAGCTTT)
The “recombinant UMI read abundance (log10)” value of the first is lower: 0.0128 for the first, 1.19 for the second.

Compared with “GGATCATCATGGACCGGTTTTCCCGGTAATCCGTATTTGCC (site CGATCATCTAG)”, “GGATCATCATGGACCGGTTTTCCCGGTAATCCGTATTTGCC (site GGATCATCTGG)” is higher in “recombinant UMI read abundance (log10)” value: 0 for the first, 0.722 for the second.

First: GGATCGTCATGGACCGGTTTTCCCGGTAATCCGTATTTGCC (site GGATCGTCTGG)
Second: GGATGCACATGGACCGGTTTTCCCGGTAATCCGTATTTGTA (site GAATGCACTTA)
The “recombinant UMI read abundance (log10)” value of the first is higher: 2.05 for the first, 0.31 for the second.

First: GGATGCACATGGACCGGTTTTCCCGGTAATCCGTATTTGTA (site GCATGCACTTA)
Second: GGATGCACATGGACCGGTTTTCCCGGTAATCCGTATTTGTA (site GGATGCACTTA)
The “recombinant UMI read abundance (log10)” value of the first is lower: 0.0182 for the first, 1.62 for the second.

For “GGATGCACATGGACCGGTTTTCCCGGTAATCCGTATTTGTA (site GTATGCACTTA)”, the “recombinant UMI read abundance (log10)” value was 0.439.
